The results in this text go back to BindingDB's records for doi:10.1021/jm00087a005 (Nova Pharmaceutical, 1992).

Experiment in all cases: Potency at the sigma binding site was determined in radioligand
Test [1] addresses sigma receptor, [3H]DTG site (Cavia porcellus).
The target of test [2] is sigma receptor, [3H]-(+)-3-PPP site (Cavia porcellus).
The target is the same in test [3]. The source holds these as a separate data set.

As usually defined, the IC50 is the concentration that gives 50% inhibition. Read a low IC50 as higher potency.

Turning to `CN(C)CCCCCCCOc1ccc2oc(-c3ccccc3)cc(=O)c2c1`, the IC50 in test [1] is 165 nM; in test [2], 188 nM.
As to `O=c1cc(-c2ccc(F)cc2)oc2ccc(OCCCCCCN3CCC(O)CC3)cc12`, the IC50 in test [1] worked out at 95 nM; in test [2], 132 nM.
On the same counts, the results for `CN(CCCCCCOc1ccc2oc(-c3ccccc3)cc(=O)c2c1)Cc1ccccc1` are 52 nM and 75 nM.
Consider `O=c1cc(-c2ccccc2)oc2cccc(OCCCCCCCN3CCC(O)CC3)c12`, for which the IC50 was 65 nM in test [3] and 36 nM in test [1].
Turning to `CC(C)Cc1cc(=O)c2cc(OCCCCCN3CCC(O)CC3)ccc2o1`, the IC50 was found to be 139 nM in test [1] and 261 nM in test [2].
With `O=c1cc(-c2ccccc2Cl)oc2ccc(OCCCCCCN3CCC(O)CC3)cc12`, the IC50 in test [3] is 29 nM; in test [1], 47 nM.
Turning to `O=c1cc(-c2cccnc2)oc2ccc(OCCCCCCN3CCCCC3)cc12`, the IC50 is 119 nM in test [1] and 192 nM in test [2].
For `O=c1cc(-c2ccccc2)oc2cc(OCCCCCCN3CCC(O)CC3)ccc12`, in that order: 45 nM and 70 nM.
As to `COc1cccc(-c2cc(=O)c3cc(OCCCCCCN4CCC(O)CC4)ccc3o2)c1`, the IC50 in test [1] came to 76 nM; in test [2] it was 111 nM.
For `O=c1cc(-c2ccccc2)oc2ccc(OCCCCCCN3CCCCC3)cc12`, the results for the half-inhibitory concentration (IC50) in test [1] and in test [2] were 101 nM and 54 nM, respectively.
On the same counts, the results for `CN(C)CCCCCCCCCCOc1ccc2oc(-c3ccccc3)cc(=O)c2c1` are 297 nM and 341 nM.
With `CCN(CC)CCCCCCOc1ccc2oc(-c3ccccc3)cc(=O)c2c1`, the IC50 stood at 100 nM in test [3] and 91 nM in test [1].
For `O=c1cc(-c2ccncc2)oc2ccc(OCCCCCCN3CCC(O)CC3)cc12`, in that order: 308 nM and 159 nM.
On to `CCOC(=O)C1CCN(CCCCCCOc2ccc3oc(-c4ccccc4)cc(=O)c3c2)CC1`, for which the 50% inhibitory concentration (IC50) in test [1] is 164 nM; in test [2] it was 102 nM.
Turning to `O=c1cc(-c2ccccc2)oc2cccc(OCCCCN3CCC(O)CC3)c12`, the IC50 in test [1] turned out to be 58 nM.
For `O=c1cc(-c2ccccc2)oc2ccc(OCCCCCCN3CCCC(O)C3)cc12` (stereo not given), the IC50 came to 86 nM in test [1] and 77 nM in test [2].
For the compound `CN(C)CCCCOc1ccc2oc(-c3ccccc3)cc(=O)c2c1`, the values for the IC50 in test [1] and in test [2] were 720 nM and 400 nM, respectively.
`O=c1cc(-c2cccs2)oc2ccc(OCCCCCCN3CCC(O)CC3)cc12`: the IC50 in test [3] turned out to be 232 nM; in test [1], 119 nM.
On the same counts, the results for `CN(C)CCCCCCOc1ccc2oc(-c3ccccc3)cc(=O)c2c1` are 335 nM and 432 nM.
Compound `O=c1cc(-c2ccccc2)oc2ccc(OCCCCCCN3CCNCC3c3ncccn3)cc12` (stereo not given) showed an IC50 in test [2] of 14200 nM.
As for `O=c1cc(-c2ccc(Cl)cc2)oc2ccc(OCCCCCCN3CCC(O)CC3)cc12`, the results for the IC50 in test [1] and in test [2] were 195 nM and 164 nM, respectively.
`O=c1cc(-c2ccccc2)oc2cc(OCCCCCCCN3CCC(O)CC3)ccc12`: the IC50 in test [3] was 19 nM; in test [1] it was 16 nM.
With `CN(C)CCCCCCCCCOc1ccc2oc(-c3ccccc3)cc(=O)c2c1`, the IC50 in test [1] worked out at 334 nM; in test [2], 202 nM.
Turning to `COc1ccc(-c2cc(=O)c3cc(OCCCCCN4CCC(O)CC4)ccc3o2)cc1`, the results for the IC50 in test [1] and in test [2] were 493 nM and 600 nM, respectively.
For `CN(C)CCOc1ccc2oc(-c3ccccc3)cc(=O)c2c1`, in that order: 590 nM and 40 nM.
On the same counts, the results for `O=c1cc(C2CCCCC2)oc2ccc(OCCCCCCN3CCC(O)CC3)cc12` are 88 nM and 46 nM.
For `O=c1cc(C2CCCC2)oc2ccc(OCCCCCCN3CCCCC3)cc12`, the IC50 in test [1] is 26 nM; in test [2], 38 nM.
Consider `O=c1cc(-c2ccccc2)oc2ccc(OCCCN3CCC(O)CC3)cc12`, for which the IC50 is 130 nM in test [1] and 123 nM in test [2].
For `CN(C)CCCCCCCCOc1ccc2oc(-c3ccccc3)cc(=O)c2c1`, in that order: 227 nM and 143 nM.
On to `O=c1cc(-c2ccccc2)oc2cccc(OCCCN3CCC(O)CC3)c12`, for which the IC50 in test [3] is 91 nM; in test [1] it was 125 nM.
Turning to `O=c1cc(C2CCCC2)oc2ccc(OCCCCCCN3CCC(O)CC3)cc12`, the IC50 amounted to 51 nM in test [1] and 55 nM in test [2].
As to `O=c1cc(-c2cccnc2)oc2ccc(OCCCCCCN3CCC(O)CC3)cc12`, the IC50 is 194 nM in test [1] and 210 nM in test [2].
Consider `COc1ccc(-c2cc(=O)c3cc(OCCCCCCN4CCC(O)CC4)ccc3o2)cc1`, for which the figures for the IC50 in test [1] and in test [2] were 254 nM and 332 nM, respectively.
On the same counts, the results for `O=c1cc(C2CCCCC2)oc2ccc(OCCCCCCN3CCCCC3)cc12` are 55 nM and 32 nM.
As for `O=c1cc(-c2ccccc2)oc2ccc(OCCCCCCN3CCC(O)CC3)cc12`, the values for the IC50 in test [3] and in test [1] were 121 nM and 100 nM, respectively.
For `O=c1cc(C2CCCCC2)oc2ccc(OCCCCCCN3CCOCC3)cc12`, the IC50 is 239 nM in test [1] and 95 nM in test [2].
